# Values quoted from earlier work as cited in PMC5381245 (Theranostics, 2017).
# Test system: tumor
# Conditions: 2 h p.i.
substance,measurement,value
NOTA-GlyGly-Nle-CycMSHhex (sidechain bridge or staple) [^64Cu-labeled NOTA-GlyGly-Nle-CycMSHhex],tumor uptake,13.4 ± 1.6 %ID/g
^111In-DOTA-GlyGly-Nle-CycMSHhex (sidechain bridge or staple),tumor-to-kidney uptake ratio,2.8
^111In-DOTA-Nle-CycMSHhex (sidechain bridge or staple),tumor uptake,19.4 ± 1.7 %ID/g
same,tumor-to-kidneys uptake ratio,2.0
